{
  "source": "patent US20090176866A1",
  "about": "“Complexes having adjuvant activity” (priority 2004, published 2009)",
  "key": {"human red blood cells": {"tested_on": "human red blood cells", "assay": "Red blood cell lysis", "type": "cell-based", "conditions": "24 h incubation; 3 donors", "experimental": "A 2% v/v solution of human red blood cells was prepared in RPMI 1640. […] A 1% solution of Triton X-100 was used as a positive reference for 100% cell lysis. Dextran and poly-L lysine were used as negative and positive controls respectively. An equal volume of the sample and red blood cells were aliquoted into a 96 well microbtre plate and incubated at 37° C. After 1 h and after 24 h, each sample was centrifuged (2,000 g, 10 min) and the supernatant added to a 96 well microtitre plate. The absorbance was measured at 490 nm using a spectrophotometer. The degree of lysis was expressed as a percentage of the 100% lysis caused by Triton X-100.\nLyophilised amphotericin B-PMMA-Na was stored at 4° C. under argon for 4 months. It was also solubilised in 5% dextrose at a concentration of 1 mg/ml and stored at 4° C. for 7 months under argon.\nFreshly prepared, clinical grade amphotericin B was used as a reference for the comparison. Incubations were undertaken for 1 h and 6 h."}, "[1]": {"tested_on": "Leishmania mexicana promastigotes", "assay": "Viability of Leishmania mexicana promastigotes (MTT)", "type": "cell-based", "conditions": "24 h + 24 h MTT at 26° C.", "procedure": "(§1) Leishmania mexicana promastgotes were used for these experiments. They were maintained in Schneider's Drosophila growth medium (Invitrogen) supplemented with 15% fetal calf serum (heat inactivated at 56° C. for 1 hour) and gentamicin (1 mg/100 ml). The parasite concentration was adjusted to 2×10^6 parasites/ml. Doubling dilutions of the test compound were prepared at twice the desired final concentration in growth media. An equal volume of the drug and the parasite suspension were then mixed in a 96 well plate and incubated for 24 h at 26° C. At this time, MTT (5 mg/ml) was added and the plate incubated for a further 24 h at 26° C. The plate was then centrifuged (2000 g, 5 min), the supernatant discarded and the pellet resuspended in 100 μl DMSO. Absorbance was measured at 570 nm using a spectrophotometer. The results were expressed as the percentage viability of the promastigotes with 100% viability being determined using the OD of the untreated, replicating promastigotes in the control wells."}, "[2]": {"tested_on": "Leishmania donovani promastigotes", "assay": "Viability of Leishmania donovani promastigotes (MTT)", "type": "cell-based", "conditions": "24 h + 24 h MTT at 26° C.", "procedure": "as §1, with “donovania promastigotes” for “mexicana promastgotes”, “Growth Media 199” for “Drosophila growth medium (Invitrogen)”"}, "[3]": {"tested_on": "intracellular Leishmania mexicana amastigotes", "assay": "Inhibition of intracellular Leishmania mexicana amastigote growth in human monocyte derived macrophages (infection index)", "type": "cell-based", "conditions": "72 h at 32° C.", "procedure": "(§2) Leishmania mexicana amastigotes were used to infect human monocyte derived macrophages that were maintained in RPMI 1640 (Invitrogen) supplemented with 10% human serum (heat inactivated at 56° C. for 1 hour) and 200 IU/ml penicillin and 200 μg/ml streptomycin. The cells were plated at 10^6 cells/ml into Lab-Tek Chamber Slides (Nunc) and incubated at 37° C./5% CO2 for 3 days. The media was then aspirated from the chamber slides and an equal volume of fresh media added back in which the amastigote concentration had been adjusted to give a parasite:cell infection ratio of 5:1. The cells were then incubated at 32° C. for 20 h to enable infection of the macrophages to become established. Media was then aspirated from the chamber slides and replaced with doubling dilutions of the test compound. The cells were then incubated at 32° C. for 72 h. After washing with PBS, the chambers were detached, the slides allowed to dry and then fixed in methanol. Each slide was then stained with Giemsa and examined microscopically. A total of 250 cells were counted to determine the number of infected and uninfected cells.\n(§3) The infection index was calculated as the average number of parasites/cell multiplied by the percentage of infected cells."}, "[4]": {"tested_on": "intracellular Leishmania donovani amastigotes", "assay": "Inhibition of intracellular Leishmania donovani amastigote growth in human monocyte derived macrophages (infection index)", "type": "cell-based", "conditions": "72 h at 32° C.", "procedure": "as §2, with “donovani” for “mexicana”\nas §3"}, "[5]": {"tested_on": "Leishmania donovani amastigotes", "assay": "Mouse model of visceral leishmaniasis (liver parasite burden)", "type": "in vivo, BALB/c mice", "procedure": "Leishmania donovani strain (MHOM/ET/67/L82) amastigotes were collected from the spleens of heavily infected donor Syrian Hamsters-Mesocritetus auratus. An inoculum containing 7.5-10×10^7 amastigotes/mL was prepared. Female BALB/c mice (20 g) that were specified pathogen free were infected intravenously with 200 μL (equivalent to 1.5-2×10^7 amastigotes) on day 0. The end point of infection was evaluated by microscopic reading on day 14 to check for the level of infection in one mouse, and on day 21 post-infection of Giemsa stained liver impressions to determine the total parasite burden.\nThe following compounds were administered intravenously according to the following regimens:—\nThere were 5 animals in each group. […] All drug preparations were filtered using a […] syringe filter. The intravenous volume of injection was 200 μL per injection.\nGroups of mice were weighed before and after treatment as a measure of toxicity and the percentage weight change noted. On day 21 after infection (which was 3 days after the completion of treatment), the parasite burden was determined microscopically from methanol fixed liver impression slides stained with 10% Giemsa. The number of amastigotes/500 liver cells were counted microscopically and the results expressed as a percentage of the untreated control."}, "visceral leishmaniasis": {"tested_on": "visceral leishmaniasis", "conditions": "intravenous, daily or every other day, 15-20 infusions at 0.75-1 mg/kg/day; cited from earlier work"}},
  "data": [
    {"molecule": "C[C@@H]1[C@H](O)[C@@H](C)/C=C/C=C/C=C/C=C/C=C/C=C/C=C/[C@H](O[C@@H]2O[C@H](C)[C@@H](O)[C@H](N)[C@@H]2O)C[C@@H]2O[C@](O)(C[C@@H](O)C[C@@H](O)[C@H](O)CC[C@@H](O)C[C@@H](O)CC(=O)O[C@H]1C)C[C@H](O)[C@H]2C(=O)O", "note": "[clinical grade amphotericin B, amphotericin B]", "values": [
      {"measurement": "red cell lysis (toxicity)", "setting": "human red blood cells", "result": 100, "unit": "%"},
      {"measurement": "90% lethal dose (LD90)", "setting": "[1]", "result": 1.49, "unit": "µg/mL"},
      {"measurement": "90% lethal dose (LD90)", "setting": "[2]", "result": 1.91, "unit": "µg/mL"},
      {"measurement": "50% inhibition of intracellular amastigote growth", "setting": "[3]", "result": 0.14, "unit": "µg/mL"},
      {"measurement": "90% inhibition of intracellular amastigote growth", "setting": "[3]", "result": 0.95, "unit": "µg/mL"},
      {"measurement": "50% inhibition of intracellular amastigote growth", "setting": "[4]", "result": 0.54, "unit": "µg/mL"},
      {"measurement": "90% inhibition of intracellular amastigote growth", "setting": "[4]", "result": 2.31, "unit": "µg/mL"},
      {"measurement": "killing activity of Leishmania donovani amastigotes compared to the controls", "setting": "[5]; 1 mg/kg i.v. days 14, 16 and 18, liver, day 21, P<0.0001", "result": "significant killing activity"},
      {"measurement": "anti-leishmanial activities compared with each other", "setting": "[5]; clinical grade amphotericin B, Ambisome, amphotericin B-PMAA-Na (2 mg/kg), P<0.05 as printed", "result": "not significantly different from each other"},
      {"measurement": "Long-term cure rates", "setting": "visceral leishmaniasis", "result": 97, "unit": "%"}
    ]}
  ]
}
